The values below are quoted from earlier work in patent US8097707B2, “Compositions and processes for preparing 13-deoxy-anthracyclines” (priority 2004, dated 2012).

The conditions of this series: test systems where doxorubicin is not metabolized appreciably to the 13-dihydro alcohol metabolite (doxorubicinol).

In the case of `COc1cccc2c1C(=O)c1c(O)c3c(c(O)c1C2=O)C[C@@](O)(C(=O)CO)C[C@@H]3O[C@H]1C[C@H](N)[C@H](O)[C@H](C)O1` [doxorubicin], the cardiotoxic effects entry was “no significant cardiotoxic effects”.
